What was measured:
Assay in all cases: microbe, parasite or virus in culture
[1] = system: Sclerotinia sclerotiorum (Lib.) de Bary; details: read-out: Inhibition Ratio (%) / S. sclerotiorum
[2] = system: Botrytis cinerea Pers; details: read-out: Inhibition Ratio (%) / B. cinerea
[3] = system: Fusarium oxysporum Schl. F.sp. vasinfectum (Atk.) Snyd. & Hans.; details: read-out: Inhibition Ratio (%) / Fusarium oxysporum Schl. F.sp. vasinfectum (Atk.) Snyd. & Hans.
[4] = system: Pyricularia oryzae Cav.; details: read-out: Inhibition Ratio (%) / Pyricularia oryzae Cav.
[5] = system: Phytophthora capsici P. CapasiciLeonian; details: read-out: Inhibition Ratio (%) / P. CapasiciLeonian

`CO[C@@H]1[C@H]2OC(C)(C)O[C@H]2O[C@@H]1Cn1cc(-c2ccc(Cl)cc2)nn1` [1-f, Furan glucosyl-1,2,3-triazole (1-f)] was tested, and the inhibition at 50 µg/mL [1] was 85.1%, the inhibition at 50 µg/mL [2] was 71% and the inhibition at 50 µg/mL [3] was 89%. It also gave an inhibition at 50 µg/mL [4] of 82.4% and an inhibition at 50 µg/mL [5] of 81.2%.

In the case of `CO[C@H]1[C@@H](Cn2cc(-c3ccccc3)nn2)OC(O)[C@@H]1O` (stereo partly drawn) [3-a, Furan glucosyl-1,2,3-triazole (3-a)], the inhibition at 50 µg/mL [1] is reported as 30.3%, the inhibition at 50 µg/mL [2] is reported as 33.3% and the inhibition at 50 µg/mL [3] is reported as 58.7%. For the same compound, the inhibition at 50 µg/mL [4] was 61.2% and the inhibition at 50 µg/mL [5] was 40.1%.

`CO[C@H]1[C@@H](Cn2cc(-c3cccc(C)c3)nn2)OC(O)[C@@H]1O` (stereo partly drawn) [3-b, Furan glucosyl-1,2,3-triazole (3-b)] was tested, and the inhibition at 50 µg/mL [1] was 28.4%, the inhibition at 50 µg/mL [2] was 15.3% and the inhibition at 50 µg/mL [3] was 34.1%. The inhibition at 50 µg/mL [4] was 35.4% and the inhibition at 50 µg/mL [5] was 35.6%.

`COc1ccc(-c2cn(C[C@H]3OC(O)[C@H](O)[C@H]3OC)nn2)cc1` (stereo partly drawn) [3-c, Furan glucosyl-1,2,3-triazole (3-c)] was tested, and the inhibition at 50 µg/mL [1] was 31.5%, the inhibition at 50 µg/mL [2] was 10.4% and the inhibition at 50 µg/mL [3] was 29.3%. It also gave an inhibition at 50 µg/mL [4] of 30.1% and an inhibition at 50 µg/mL [5] of 38.9%.

`CO[C@H]1[C@@H](Cn2cc(-c3ccc(F)cc3)nn2)OC(O)[C@@H]1O` (stereo partly drawn) [3-d, Furan glucosyl-1,2,3-triazole (3-d)] showed an inhibition at 50 µg/mL [1] of 38.4%, an inhibition at 50 µg/mL [2] of 19.1% and an inhibition at 50 µg/mL [3] of 40.2%. For the same compound, the inhibition at 50 µg/mL [4] was 47.8% and the inhibition at 50 µg/mL [5] was 50.2%.

In the case of `CO[C@H]1[C@@H](Cn2cc(-c3ccc([N+](=O)[O-])cc3)nn2)OC(O)[C@@H]1O` (stereo partly drawn) [3-e, Furan glucosyl-1,2,3-triazole (3-e)], the inhibition at 50 µg/mL [1] is reported as 39.6%, the inhibition at 50 µg/mL [2] is reported as 17.1% and the inhibition at 50 µg/mL [3] is reported as 25.6%. For the same compound, the inhibition at 50 µg/mL [4] was 23.1% and the inhibition at 50 µg/mL [5] was 44.7%.

`CO[C@H]1[C@@H](Cn2cc(-c3ccc(Cl)cc3)nn2)OC(O)[C@@H]1O` (stereo partly drawn) [3-f, Furan glucosyl-1,2,3-triazole (3-f)] showed an inhibition at 50 µg/mL [1] of 25.3%, an inhibition at 50 µg/mL [2] of 20.5% and an inhibition at 50 µg/mL [3] of 57.6%. The inhibition at 50 µg/mL [4] was 50.7% and the inhibition at 50 µg/mL [5] was 46.8%.

Compound `CO[C@H]1[C@@H](Cn2cc(C(C)O)nn2)OC(O)[C@@H]1O` (stereo partly drawn) [3-g, Furan glucosyl-1,2,3-triazole (3-g)] has an inhibition at 50 µg/mL [1] of 13.7%, an inhibition at 50 µg/mL [2] of 11.5% and an inhibition at 50 µg/mL [3] of 23.4%. It also gave an inhibition at 50 µg/mL [4] of 21.5% and an inhibition at 50 µg/mL [5] of 23.1%.

For `OC1O[C@H](Cn2cc(-c3ccccc3)nn2)[C@H](OCc2ccccc2)[C@H]1O` (stereo partly drawn) [4-a, Furan glucosyl-1,2,3-triazole (4-a)], the inhibition at 50 µg/mL [1] was 26.4%, the inhibition at 50 µg/mL [2] was 19.5% and the inhibition at 50 µg/mL [3] was 35.4%. For the same compound, the inhibition at 50 µg/mL [4] was 37.8% and the inhibition at 50 µg/mL [5] was 21.2%.

For `Cc1cccc(-c2cn(C[C@H]3OC(O)[C@H](O)[C@H]3OCc3ccccc3)nn2)c1` (stereo partly drawn) [4-b, Furan glucosyl-1,2,3-triazole (4-b)], the inhibition at 50 µg/mL [1] was 29.9%, the inhibition at 50 µg/mL [2] was 10.9% and the inhibition at 50 µg/mL [3] was 27.1%. For the same compound, the inhibition at 50 µg/mL [4] was 27.8% and the inhibition at 50 µg/mL [5] was 29.6%.

`OC1O[C@H](Cn2cc(-c3ccc(F)cc3)nn2)[C@H](OCc2ccccc2)[C@H]1O` (stereo partly drawn) [4-d, Furan glucosyl-1,2,3-triazole (4-d)] was tested, and the inhibition at 50 µg/mL [1] was 34.7%, the inhibition at 50 µg/mL [2] was 20.3% and the inhibition at 50 µg/mL [3] was 37.8%. The inhibition at 50 µg/mL [4] was 35.6% and the inhibition at 50 µg/mL [5] was 35.4%.

For `OC1O[C@H](Cn2cc(-c3ccc(Cl)cc3)nn2)[C@H](OCc2ccccc2)[C@H]1O` (stereo partly drawn) [4-f, Furan glucosyl-1,2,3-triazole (4-f)], the inhibition at 50 µg/mL [1] was 31.7%, the inhibition at 50 µg/mL [2] was 22.2% and the inhibition at 50 µg/mL [3] was 43.1%. The inhibition at 50 µg/mL [4] was 40.2% and the inhibition at 50 µg/mL [5] was 38.7%.

In the case of `CC(O)c1cn(C[C@H]2OC(O)[C@H](O)[C@H]2OCc2ccccc2)nn1` (stereo partly drawn) [4-g, Furan glucosyl-1,2,3-triazole (4-g)], the inhibition at 50 µg/mL [1] is reported as 13.5%, the inhibition at 50 µg/mL [2] is reported as 12.1% and the inhibition at 50 µg/mL [3] is reported as 20.9%. It also gave an inhibition at 50 µg/mL [4] of 21.3% and an inhibition at 50 µg/mL [5] of 24.5%.

`CO[C@H]1C(Cn2cc(-c3ccccc3)nn2)OC(OC(C)=O)[C@@H]1OC(C)=O` (stereo partly drawn) [5-a, Furan glucosyl-1,2,3-triazole (5-a)] was tested, and the inhibition at 50 µg/mL [1] was 57.6%, the inhibition at 50 µg/mL [2] was 36.1% and the inhibition at 50 µg/mL [3] was 61.3%. It also gave an inhibition at 50 µg/mL [4] of 62.7% and an inhibition at 50 µg/mL [5] of 42.3%.

In the case of `COc1ccc(-c2cn(C[C@H]3OC(OC(C)=O)[C@H](OC(C)=O)[C@H]3OC)nn2)cc1` (stereo partly drawn) [5-c, Furan glucosyl-1,2,3-triazole (5-c)], the inhibition at 50 µg/mL [1] is reported as 43.1%, the inhibition at 50 µg/mL [2] is reported as 19.2% and the inhibition at 50 µg/mL [3] is reported as 30%. The inhibition at 50 µg/mL [4] was 40.8% and the inhibition at 50 µg/mL [5] was 47.2%.

`CO[C@H]1[C@@H](Cn2cc(-c3ccc(F)cc3)nn2)OC(OC(C)=O)[C@@H]1OC(C)=O` (stereo partly drawn) [5-d, Furan glucosyl-1,2,3-triazole (5-d)] was tested, and the inhibition at 50 µg/mL [1] was 67.6%, the inhibition at 50 µg/mL [2] was 23.2% and the inhibition at 50 µg/mL [3] was 70.9%. For the same compound, the inhibition at 50 µg/mL [4] was 69.2% and the inhibition at 50 µg/mL [5] was 65.2%.

For `CO[C@H]1[C@@H](Cn2cc(-c3ccc([N+](=O)[O-])cc3)nn2)OC(OC(C)=O)[C@@H]1OC(C)=O` (stereo partly drawn) [5-e, Furan glucosyl-1,2,3-triazole (5-e)], the inhibition at 50 µg/mL [1] was 64.9%, the inhibition at 50 µg/mL [2] was 22.1% and the inhibition at 50 µg/mL [3] was 69.5%. It also gave an inhibition at 50 µg/mL [4] of 56.9% and an inhibition at 50 µg/mL [5] of 67.7%.

Compound `CO[C@H]1[C@@H](Cn2cc(-c3ccc(Cl)cc3)nn2)OC(OC(C)=O)[C@@H]1OC(C)=O` (stereo partly drawn) [5-f, Furan glucosyl-1,2,3-triazole (5-f)] has an inhibition at 50 µg/mL [1] of 56.1%, an inhibition at 50 µg/mL [2] of 27.6% and an inhibition at 50 µg/mL [3] of 71.5%. It also gave an inhibition at 50 µg/mL [4] of 60.5% and an inhibition at 50 µg/mL [5] of 68.2%.

`CC(=O)OC1O[C@H](Cn2cc(-c3ccc(F)cc3)nn2)[C@H](OCc2ccccc2)[C@H]1OC(C)=O` (stereo partly drawn) [6-d, Furan glucosyl-1,2,3-triazole (6-d)] gave an inhibition at 50 µg/mL [1] of 64.7%, an inhibition at 50 µg/mL [2] of 26.7% and an inhibition at 50 µg/mL [3] of 58.6%. It also gave an inhibition at 50 µg/mL [4] of 50.2% and an inhibition at 50 µg/mL [5] of 57.1%.

Compound `CC(=O)OC1O[C@H](Cn2cc(-c3ccc([N+](=O)[O-])cc3)nn2)[C@H](OCc2ccccc2)[C@H]1OC(C)=O` (stereo partly drawn) [6-e, Furan glucosyl-1,2,3-triazole (6-e)] has an inhibition at 50 µg/mL [1] of 56.3%, an inhibition at 50 µg/mL [2] of 27.4% and an inhibition at 50 µg/mL [3] of 59.3%. It also gave an inhibition at 50 µg/mL [4] of 48.9% and an inhibition at 50 µg/mL [5] of 50.3%.

With `N#Cc1c(Cl)c(Cl)c(Cl)c(C#N)c1Cl` [Chlorothalonil] the inhibition at 50 µg/mL [1] was 95.5%, the inhibition at 50 µg/mL [2] was 98% and the inhibition at 50 µg/mL [3] was 94.2%. For the same compound, the inhibition at 50 µg/mL [4] was 89.2% and the inhibition at 50 µg/mL [5] was 94.2%.
